Values quoted from earlier work in patent US20240197646A1, “DRUG DELIVERY SYSTEM AND METHODS OF USING THE SAME” (Axogen Corporation, priority 2022, published 2024).

Details: stated reference level, no source or test given

C=CC[C@@H]1/C=C(\C)C[C@H](C)C[C@H](OC)[C@H]2O[C@@](O)(C(=O)C(=O)N3CCCC[C@H]3C(=O)O[C@H](/C(C)=C/[C@@H]3CC[C@@H](O)[C@H](OC)C3)[C@H](C)[C@@H](O)CC1=O)[C@H](C)C[C@@H]2OC [FK506]
toxic dose: about 5 mg/ml
